Values of other authors as cited in patent publication US20080242727A1, “DIETARY COMPOSITIONS CONTAINING ALPHA AMINO N-BUTYRATE AND METHODS OF ENHANCING LEAN BODY MASS” (priority 2007, published 2008).

How the values were obtained:
[1] = tested on: protein synthesis in skeletal muscle; conditions: for protein synthesis in skeletal muscle of food-deprived rats: oral administration, vs saline-treated controls
[2] = tested on: hemidiaphragms from fed or fasted rats; conditions: in vitro; for specific activity of muscle proteins (protein synthesis): [14C]lysine, with or without insulin
[3] = tested on: hearts perfused with buffer; conditions: for negative nitrogen balance: buffer with glucose and normal plasma levels of other amino acids, except BCAA
[4] = tested on: rat liver proteolysis; conditions: out of 12 amino acids tested; only at concentrations much higher than physiological
[5] = tested on: erythroid progenitors; conditions: in vivo or in culture
[6] = dose of as little as 3 g/day

Row | SMILES | protein synthesis in skeletal muscle of food-deprived rats [1] | specific activity of muscle proteins (protein synthesis) [2] | negative nitrogen balance [3] | other results
1 | CC(C)C[C@H](N)C(=O)O [Leucine, L-Leucine] | stimulated protein synthesis | increased | decreased the negative nitrogen balance | protein synthesis / eIF4F formation ([1]; independently of increases in serum insulin): stimulated protein synthesis by enhancing eukaryotic initiation factor (eIF)4F formation; muscle synthesis after exercise ([1]; oral gavage to rats after exercise): stimulated muscle synthesis independent of increased plasma insulin; glucocorticoid-induced decreases in protein synthesis and mRNA translation ([1]; oral, rats): restored; protein degradation [2]: prohibited protein degradation; rate of protein synthesis as % of the rate of proteolysis ([3]; leucine concentrations giving maximal inhibition of protein degradation): 50%; inhibition of deprivation-induced rat liver proteolysis [4]: strongest inhibitor
2 | CC(C)[C@H](N)C(=O)O [valine] | ineffective | no effect | not | 
3 | CC[C@H](C)[C@H](N)C(=O)O [isoleucine] | ineffective | inhibitory effects | not | 
4 | CCC(N)C(=O)O (stereo not drawn) [ABA, alpha amino n-butyrate] |  |  |  | growth of erythroid progenitors [5]: stimulated the growth of all classes of erythroid progenitors
5 | CC(C)(O)CC(=O)O [HMB, b-hydroxy b-methylbutyrate] |  |  |  | effect on catabolism, lean muscle mass and recuperation [6]: anti-catabolic, promotes lean muscle mass, and may speed recuperation
